# Laboratory results from patent US6737383B1, “Herbicidal oxadiazolidines” (priority 1999, dated 2004).
# Assays:
# blackgrass = assay: Test B pre/postemergence blackgrass; assay type: in vivo, Alopecurus myosuroides
# Method in brief: (§1)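 Test chemicals in a non-phytotoxic solvent mixture with surfactant were sprayed preemergence onto planted seeds and postemergence onto plants 2 to 18 cm tall (1- to 4-leaf stage). After twelve to sixteen days in a greenhouse, injury was visually rated against untreated controls from 0 (no effect) to 10 (complete control).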
# surinam grass = assay: Test B pre/postemergence surinam grass; assay type: in vivo, Brachiaria decumbens
# Method in brief: as §1
# cocklebur = assay: Test B pre/postemergence cocklebur; assay type: in vivo, Xanthium strumarium
# Method in brief: as §1
# corn = assay: Test B pre/postemergence corn; assay type: in vivo, Zea mays
# Method in brief: as §1
# crabgrass = assay: Test B pre/postemergence crabgrass; assay type: in vivo, Digitaria sanguinalis
# Method in brief: as §1
# giant foxtail = assay: Test B pre/postemergence giant foxtail; assay type: in vivo, Setaria faberii
# Method in brief: as §1
# morningglory = assay: Test B pre/postemergence morningglory; assay type: in vivo, Ipomoea hederacea
# Method in brief: as §1
# pigweed = assay: Test B pre/postemergence pigweed; assay type: in vivo, Amaranthus retroflexus
# Method in brief: as §1
# rape = assay: Test B pre/postemergence rape; assay type: in vivo, Brassica napus
# Method in brief: as §1
# soybean = assay: Test B pre/postemergence soybean; assay type: in vivo, Glycine max
# Method in brief: as §1
# sugar beet = assay: Test B pre/postemergence sugar beet; assay type: in vivo, Beta vulgaris
# Method in brief: as §1
# velvetleaf = assay: Test B pre/postemergence velvetleaf; assay type: in vivo, Abutilon theophrasti
# Method in brief: as §1
# wheat = assay: Test B pre/postemergence wheat; assay type: in vivo, Triticum aestivum
# Method in brief: as §1
# wild oat = assay: Test B pre/postemergence wild oat; assay type: in vivo, Avena fatua
# Method in brief: as §1
# purple nutsedge = assay: Test B pre/postemergence purple nutsedge; assay type: in vivo, Cyperus rotundus
# Method in brief: as §1
# rice = assay: Test B flood test rice; assay type: in vivo, Oryza sativa
# Method in brief: (§2)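 Read-out is a visual response score from 0 (no effect) to 10 (complete control), assigned by comparison with untreated controls. Treatment was applied at the 2-leaf stage, and plants stayed in the greenhouse for twelve to sixteen days before scoring.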
# smallflower flatsedge = assay: Test B flood test smallflower flatsedge; assay type: in vivo, Cyperus difformis
# Method in brief: as §2
# duck salad = assay: Test B flood test duck salad; assay type: in vivo, Heteranthera limosa
# Method in brief: as §2
# bamyardgrass = assay: Test B flood test barnyardgrass; assay type: in vivo, Echinochloa crus-galli
# Method in brief: as §2
# [1] = Postemergence, Rate 31 g/ha, visual rating, scale 0 to 10 (0 no effect, 10 complete control)
# [2] = Postemergence, Rate 62 g/ha, scale 0 to 10, 0 is no effect, 10 is complete control
# [3] = Postemergence, Rate 125 g/ha, scale of 0 to 10 where 0 is no effect and 10 is complete control
# [4] = Postemergence, Rate 250 g/ha, scale of 0 to 10, 0 is no effect, 10 is complete control
# [5] = Preemergence, Rate 31 g/ha, visual rating, scale 0 to 10 (0 no effect, 10 complete control)
# [6] = Preemergence, Rate 62 g/ha, scale of 0 to 10 where 0 is no effect and 10 is complete control
# [7] = Preemergence, Rate 125 g/ha, scale of 0 to 10 where 0 is no effect and 10 is complete control
# [8] = Preemergence, Rate 250 g/ha, scale 0 to 10 (0 no effect, 10 complete control)
# [9] = Rate 31 g/ha, Pre-emergence section (flood test species), scale 0 to 10
# [10] = Rate 62 g/ha, flood test species, Pre-emergence, visual evaluation after twelve to sixteen days
# [11] = Rate 125 g/ha, under heading Pre-emergence, flood test species, visual evaluation after twelve to sixteen days
# [12] = Rate 250 g/ha, Pre-emergence (flood test species), scale 0 to 10, 0 is no effect, 10 is complete control
structure (smiles),measurement,setting,value
CC(C)N(C(=O)n1oc(=O)n(CCC2=NOCCC2)c1=O)c1ccc(F)cc1 [Compound 656],Blackgrass plant response rating,blackgrass; [1],6
same,"Plant response rating, Blackgrass",blackgrass; [2],6
same,Blackgrass plant response rating,blackgrass; [3],7
same,Blackgrass plant response rating,blackgrass; [4],9
same,Blackgrass plant response rating,blackgrass; [5],2
same,Blackgrass plant response rating,blackgrass; [6],4
same,Blackgrass plant response rating,blackgrass; [7],4
same,"Plant response rating, Blackgrass",blackgrass; [8],5
same,B. signalgrass plant response rating,surinam grass; [1],0
same,"Plant response rating, B. signalgrass",surinam grass; [2],0
same,"Plant response rating, B. signalgrass",surinam grass; [3],2
same,B. signalgrass plant response rating,surinam grass; [4],5
same,B. signalgrass plant response rating,surinam grass; [5],0
same,B. signalgrass plant response rating,surinam grass; [6],0
same,B. signalgrass plant response rating,surinam grass; [7],2
same,"Plant response rating, B. signalgrass",surinam grass; [8],6
same,Cocklebur plant response rating,cocklebur; [1],0
same,"Plant response rating, Cocklebur",cocklebur; [2],0
same,Cocklebur plant response rating,cocklebur; [3],0
same,Cocklebur plant response rating,cocklebur; [4],0
same,Cocklebur plant response rating,cocklebur; [5],0
same,Cocklebur plant response rating,cocklebur; [6],0
same,Cocklebur plant response rating,cocklebur; [7],0
same,"Plant response rating, Cocklebur",cocklebur; [8],0
same,Corn plant response rating,corn; [1],0
same,"Plant response rating, Corn",corn; [2],0
same,Corn plant response rating,corn; [3],0
same,Corn plant response rating,corn; [4],0
same,Corn plant response rating,corn; [5],0
same,Corn plant response rating,corn; [6],0
same,Corn plant response rating,corn; [7],0
same,"Plant response rating, Corn",corn; [8],0
same,Crabgrass plant response rating,crabgrass; [1],0
same,"Plant response rating, Crabgrass",crabgrass; [2],0
same,Crabgrass plant response rating,crabgrass; [3],0
same,Crabgrass plant response rating,crabgrass; [4],8
same,Crabgrass plant response rating,crabgrass; [5],6
same,Crabgrass plant response rating,crabgrass; [6],7
same,Crabgrass plant response rating,crabgrass; [7],7
same,"Plant response rating, Crabgrass",crabgrass; [8],8
same,Giant foxtail plant response rating,giant foxtail; [1],0
same,"Plant response rating, Giant foxtail",giant foxtail; [2],3
same,Giant foxtail plant response rating,giant foxtail; [3],9
same,Giant foxtail plant response rating,giant foxtail; [4],9
same,Giant foxtail plant response rating,giant foxtail; [5],4
same,Giant foxtail plant response rating,giant foxtail; [6],4
same,Giant foxtail plant response rating,giant foxtail; [7],10
same,"Plant response rating, Giant foxtail",giant foxtail; [8],10
same,Morningglory plant response rating,morningglory; [1],0
same,"Plant response rating, Morningglory",morningglory; [2],1
same,Morningglory plant response rating,morningglory; [3],2
same,Morningglory plant response rating,morningglory; [4],2
same,Morningglory plant response rating,morningglory; [6],0
same,Morningglory plant response rating,morningglory; [7],0
same,"Plant response rating, Morningglory",morningglory; [8],0
same,Redroot pigweed plant response rating,pigweed; [1],0
same,"Plant response rating, Redroot pigweed",pigweed; [2],0
same,Redroot pigweed plant response rating,pigweed; [3],0
same,Redroot pigweed plant response rating,pigweed; [6],0
same,Redroot pigweed plant response rating,pigweed; [7],4
same,"Plant response rating, Redroot pigweed",pigweed; [8],6
same,Rape plant response rating,rape; [1],0
same,"Plant response rating, Rape",rape; [2],0
same,Rape plant response rating,rape; [3],0
same,Rape plant response rating,rape; [6],0
same,Rape plant response rating,rape; [7],0
same,"Plant response rating, Rape",rape; [8],0
same,Soybean plant response rating,soybean; [1],1
same,"Plant response rating, Soybean",soybean; [2],2
same,Soybean plant response rating,soybean; [3],2
same,Soybean plant response rating,soybean; [6],0
same,Soybean plant response rating,soybean; [7],0
same,"Plant response rating, Soybean",soybean; [8],0
same,Sugarbeets plant response rating,sugar beet; [1],0
same,"Plant response rating, Sugarbeets",sugar beet; [2],0
same,Sugarbeets plant response rating,sugar beet; [3],0
same,Sugarbeets plant response rating,sugar beet; [6],0
same,Sugarbeets plant response rating,sugar beet; [7],0
same,"Plant response rating, Sugarbeets",sugar beet; [8],3
same,Velvetleaf plant response rating,velvetleaf; [1],0
same,"Plant response rating, Velvetleaf",velvetleaf; [2],0
same,Velvetleaf plant response rating,velvetleaf; [3],0
same,Velvetleaf plant response rating,velvetleaf; [6],2
same,Velvetleaf plant response rating,velvetleaf; [7],4
same,"Plant response rating, Velvetleaf",velvetleaf; [8],6
same,Wheat plant response rating,wheat; [1],0
same,"Plant response rating, Wheat",wheat; [2],0
same,Wheat plant response rating,wheat; [3],0
same,Wheat plant response rating,wheat; [6],0
same,Wheat plant response rating,wheat; [7],0
same,"Plant response rating, Wheat",wheat; [8],0
same,Wild oats plant response rating,wild oat; [1],0
same,"Plant response rating, Wild oats",wild oat; [2],0
same,Wild oats plant response rating,wild oat; [3],0
same,Wild oats plant response rating,wild oat; [6],0
same,Wild oats plant response rating,wild oat; [7],0
same,"Plant response rating, Wild oats",wild oat; [8],6
same,Nutsedge plant response rating,purple nutsedge; [1],0
same,"Plant response rating, Nutsedge",purple nutsedge; [2],0
same,Nutsedge plant response rating,purple nutsedge; [3],0
same,Nutsedge plant response rating,purple nutsedge; [6],0
same,Nutsedge plant response rating,purple nutsedge; [7],0
same,"Plant response rating, Nutsedge",purple nutsedge; [8],0
same,Rice plant response rating,rice; [9],0
same,"Plant response rating, Rice (0 to 10 scale, 0 is no effect, 10 is complete control)",rice; [10],0
same,"Rice plant response rating (0 to 10 scale, 0 is no effect, 10 is complete control)",rice; [11],0
same,Rice plant response rating,rice; [12],0
same,S. Flatsedge plant response rating,smallflower flatsedge; [9],0
same,"Plant response rating, S. Flatsedge (0 to 10 scale, 0 is no effect, 10 is complete control)",smallflower flatsedge; [10],0
same,"S. Flatsedge plant response rating (0 to 10 scale, 0 is no effect, 10 is complete control)",smallflower flatsedge; [11],0
same,S. Flatsedge plant response rating,smallflower flatsedge; [12],0
same,Ducksalad plant response rating,duck salad; [9],0
same,"Plant response rating, Ducksalad (0 to 10 scale, 0 is no effect, 10 is complete control)",duck salad; [10],0
same,"Ducksalad plant response rating (0 to 10 scale, 0 is no effect, 10 is complete control)",duck salad; [11],0
same,Ducksalad plant response rating,duck salad; [12],0
same,Barnyardgrass plant response rating,bamyardgrass; [9],0
same,"Plant response rating, Barnyardgrass (0 to 10 scale, 0 is no effect, 10 is complete control)",bamyardgrass; [10],0
same,"Barnyardgrass plant response rating (0 to 10 scale, 0 is no effect, 10 is complete control)",bamyardgrass; [11],0
same,Barnyardgrass plant response rating,bamyardgrass; [12],0
